Test results reported in US5110935A, “New compounds which are active against the tissue forms of malaria and method of preparation” (Ire-Celltarg, S.A., priority 1988, dated 1992).
“Also recorded” adds a separate entry of the source. Like-named read-outs stand apart in the source and are kept apart here.

Key:
Plasmodium berghei = test: Causal prophylactic activity on OF1 mice infected with Plasmodium berghei; type: in vivo, P. berghei (ANKA), in Swiss OF1 mice; details: for ED50 / ED100 / minimal effective dose: Plasmodium berghei, 3 h; for ED50 / ED100 / minimal effective dose / CPD50, fold lower than for PQ: iv; for ED50: read-out: CPD50, causal prophylactic dose curing 50% of the infected and treated animals; for ED100: read-out: ED100, totally curative dose; for minimal effective dose: read-out: Minimal effective dose (MED); for PQ index: ratio CPD50 of PQ/CPD50 of the compound
Experimental: Primaquine and its derivatives are tested in the model of malaria in rodents employing the infection of mice with Plasmodium berghei, the sporozoites originating from infected Anopheles stephensi mosquitoes. This model, developed by Most H., Herman R. & Schoenfeld C. (1967), Am. J. Trop. med. Hyg. 16, 572-575, enables the casual prophylatic (tissue schizonticidal) activity of new therapeutic compounds to be determined.
The procedure used is that derived from Most H. & Montuori W.A. (1975), Am. J. Trop. Med. Hyg. 24, 179-189. It involves the system P. berghei (ANKA)/Anopheles stephensi/Swiss OF1 mice. The ANKA strain of P. b. berghei is maintained cyclically on Anopheles stephensi. The Swiss OF1 strain mouse is especially sensitive to P. b. berghei, which produces an invariably fatal infection.
The legs, wings and abdomen are removed from female mosquitoes (80 to 100 individuals per preparation) and the latter are then homogenized at 4° C. in MEM medium (GIBCO) containing 10% of fetal calf serum using a glass Potter. The sporozoite suspension is then purified from the mosquito debris by two successive centrifugations (2 min at 50 g and 5 min at 200 g) and the collected supernatant is stored at 4° C. After counting in a Petroff-Hausser chamber, the number of parasites is adjusted by dilution with the same cold medium to a density of 2×10^5 sporozoites/ml.
The causal prophylactic activity of the compounds, that is to say the dose enabling 50% of the infected animals to be cured (CPD50) is obtained by analysis of the logits of the response (expressed as a % LTS) as a function of the dose (mg PQ/kg).
A volume of 0.5 ml of the suspension containing 10^5 sporozoites is injected i.v. into female Swiss OF1 mice weighing 20 to 25 g, used for the therapeutic tests. 1.2. Chemotherapeutic treatments
Groups of 20 to 25 mice, infected as described above, are treated with a single intravenous injection of primaquine diphosphate (PQ) or of its two derivatives in hydrochloride form, three hours after inoculation of the sporozoites. The volume injected is adjusted according to the weight of the mouse, on the basis of 0.25 ml for a weight of 25 g. The compounds are diluted in phosphatebuffered saline (PBS), pH 7.0, and the pH is adjusted to 7.0. Infected but untreated mice (5 per group), receive the buffer alone and serve to monitor the infectivity of the sporozoites.
The experimental mice are kept for a period of 50 days. The development of the parasitemia is followed by daily examination of blood smears stained for 60 min with 5% Giemsa in Sorensen buffer at pH 7.2, from day 5 up to day 15. The number of infected animals can thus be determined.
(§1) The animals infected using P. berchei sporozoites are treated three hours later with a single i.v. injection of the compounds. This test enables the casual prophylactic activity of the compounds, that is the dose enabling 50% of the infected animals to be cured (CPD50), to be defined. The dose is always expressed as mg of PQ diphosphate per kg.
as §1, with “berghei” for “berchei”

man = details: human, in vivo, cited from earlier work
[1] = system: persistent tissue forms of P. vivax and P. ovale; details: persistent tissue forms of P. vivax and P. ovale in man; cited from earlier work
human red cells = test: Hemolytic effect on human red cells; type: cell-based
Experimental: Two important toxic effects of PQ were assessed on the two derivatives: the hemolytic effect and the conversion of hemoglobin to methemoglobin.
A+ blood is washed twice in 0.15M phosphatebuffered saline at pH 7.4 containing 20 mM glucose (GPBS), and then resuspended at a concentration of 50% in the same buffer. To this suspension, an equal volume of compound dissolved in GPBS at different concentrations (test), or of GPBS (control) is added. The final hematocrit of the suspension is 25%. After 60 minutes' incubation at 37° C., the concentration of hemoglobin and methemoglobin is determined on the total suspension, and the concentration of hemoglobin present in the supernatant after centrifugation (extracellular hemoglobin) is determined, by the cyanmethemoglobin and benzidine methods (Fairbanks V.F., 1976, in "Fundamentals of Clinical Chemistry, M.W. Tietz Editors, Saunders").

[2] = Stability at room temperature; type: physicochemical; details: for Stability at room temp. under inert atmosphere: argon
[3] = single i.v. three hours after sporozoites, mg PQ diphosphate equivalent/kg

SMILES | ED50 (Plasmodium berghei) [mg/kg] | ED100 (Plasmodium berghei) [mg/kg] | minimal effective dose (Plasmodium berghei) [mg/kg] | PQ index (Plasmodium berghei) | CPD50, causal prophylactic dose curing 50% of the infected and treated animals (Plasmodium berghei; [3]) | ED100, totally curative dose (Plasmodium berghei; [3]) | Toxic effects (words) (man) | Toxic effects (words) (man; listed as primaquine) | Clinical effectiveness [1] | Hemolytic effect (human red cells) | Hemolysis (% of total hemoglobin concentration) (human red cells; 10 mM, 1 hour, 37° C., 60 min, 10000 µM) | Stability at room temp. and in the air [2] | Stability at room temp. under inert atmosphere [2] | ED50 (Plasmodium berghei; [3]) [mg/kg] | ED100 (Plasmodium berghei; [3]) [mg/kg] | minimal effective dose (Plasmodium berghei; [3]) [mg/kg] | CPD50, fold lower than for PQ (Plasmodium berghei) | Activity compared with PQ (Plasmodium berghei; mouse, in vivo) | Activity relative to PQ, fold as active (Plasmodium berghei; model of malaria in mice)
COc1cc(NC(C)CCCN)c2ncccc2c1 (stereo not shown) [Primaquine, 6-methoxy-8-(4-amino-1-methylbutylamino)quinoline, reference compound] | 18.8 | ~54 | 6.5 | 1.00 | 18.8 (1.3) mg/kg | TOX | destabilizes the red cell membrane, inducing a hemolysis | hemolysis; also recorded: Methemoglobinuria and gastrointestinal disorders as well as certain effects on the central nervous system | clinically effective | concentration-dependent hemolytic effect | 4.7 (1.7) % |  |  |  |  |  |  |  | 
COc1cc(NC(C)CCCNC(=O)CC[C@H](N)C(=O)O)c2ncccc2c1 (stereo partly drawn) [gGLU-PQ, N-(γ-L-glutamyl)primaquine] |  |  |  | 2.15 | 8.7 (0.7) mg/kg | 24.2 (9.8) mg/kg |  |  |  |  |  | unstable | stable | 8.7 | 24 | 3.2 | 22 -fold | at least twice as active as PQ | 
COc1cc(NC(C)CCCNC(=O)[C@@H]2CCC(=O)N2)c2ncccc2c1 (stereo partly drawn) [pGLU-PQ, N-(α-L-pyroglutamyl)primaquine] |  |  |  | 1.87 | 10.0 (0.7) mg/kg | 21.8 (5.7) mg/kg |  |  |  |  |  | unstable | stable | 10 | 22 | 4.6 | 1.9 -fold |  | at least 1.9 -fold
